Experiments:
CT-26WT colon tumor = assay: Primary colon CT-26WT tumor in mice; type: in vivo; details: FIG. 12 and 13; for efficacy on primary tumor CT-26 (single agent): sodium decanoate oral 200 mg/kg daily, 5-fluorouracil i.p. 40 mg/kg day 6, 13, 20, Compound XV oral
Protocol: The syngeneic tumor CT-26WT (CT-26) is a colon tumor cell line obtained from ATCC (CRL-2638). CT-26 cells were grown in RPMI containing 10% fetal bovine serum. At day 0, 50 μL of 5×10^6 viable CT-26 cells were subcutaneously injected to produce localized tumors in 6- to 8-week old mice. The animals were then serially monitored by manual palpation for evidence of tumor. […] Mice were sacrificed at day 25. Serial tumor volume was obtained by bi-dimensional diameter measurements with calipers, using the formula 0.4 (a×b^2) where “a” was the major tumor diameter and “b” the minor perpendicular diameter. Tumors were palpable, in general, 3-5 days post-inoculation.

CTGF production = assay: Inhibition of TGF-induced CTGF production in NHDF (ELISA); type: cell-based; details: Homo sapiens, 10 ng/mL TGF-β, 48 h
Protocol: The effect of selected compounds on CTGF production was undertaken in normal human dermal fibroblast (NHDF) or human mesangial cells. Cells were cultured in DMEM (0.5% FBS) with or without 10 ng/mL of TGF-β for 48 h in a humidified atmosphere of 95% air-5% carbon dioxide at 37° C. CTGF measurement in the culture medium was measured using the CTGF ELISA according to the manufacturer (Prepotech) recommendations.

IL-12 production = IL-12 production in LPS-stimulated RAW264.7 cells (ELISA); type: cell-based; details: 100 ng/mL LPS, 21 h; for IL-12: compound 0.5 mM
Protocol: The effect of selected compounds on IL-12 production was undertaken in RAW264.7 (macrophage-like) cells. RAW264.7 cells were cultured with 100 ng/mL of LPS in presence or absence of compounds for 21 h in a humidified atmosphere of 95% air-5% carbon dioxide at 37° C. IL-12 concentration in the culture medium was measured using the IL-12 ELISA according to the manufacturer (BD Biosciences) recommendations. […] Compounds have no effect on IL-12 production in the absence of LPS.

B16F10 melanoma cells = assay: Primary B16F10 melanoma tumor in mice; type: in vivo; details: C57BL/6 mice; sodium decanoate 100 mg/kg oral daily, doxorubicin 5 mg/kg (subtherapeutic dose); FIG. 3
Protocol: Female 6-8 week old C57BL/6 mice were injected subcutaneously on day 0 with 50 μL of 3.75×10^4 viable B16F10 melanoma cells from ATCC (source of cell culture, Dr. I. J. Fidler). On day 14, tumors reached […] and animals were randomized for treatment. […] Mice were sacrificed on day 12.

HK-2 cells = assay: TGF-β induced epithelial to mesenchymal transition in HK-2 cells (real-time PCR of E-cadherin, CTGF, collagen 1); type: cell-based, human
Protocol: (§1) FIG. 20 is a bar graph showing the effect of Compound XVII on E-cadherin in normal HK-2 cells and in TGF-β induced EMT cells. Real-time PCR using human E-cadherin TaqMan® Gene Expression Assay normalized to human GAPDH endogenous control; reference is TGF-δ-treated cells 24 h (RQ=1). *means p<0.05, and ** means p<0.01 (t-test).
as §1, with “FIG. 21” for “FIG. 20”, “on CTGF” for “on E-cadherin”, “human CTGH” for “human E-cadherin”, “is TGF-β-treated” for “is TGF-δ-treated”
FIG. 22 is a bar graph showing the effect of Compound XVII on collagen 1 in normal HK-2 cells and in TGF-β induced EMT cells. Real-time PCR using human Collagen 1 TaqMan® Gene Expression Assay normalized to human GAPDH endogenous control; reference is TGF-β-treated cells 24 h (RQ=1). ** means p<0.01 (t-test).
Real-time PCR using human CTGF TaqMan® Gene Expression Assay and Collagen 1 TaqMan® Gene Expression Assay normalized to human GAPDH endogenous control; reference is TGF-β-treated cells 24 h (RQ=1).
FIG. 24 is a bar graph showing the effect of Compound I on CTGF and collagen 1 expression in normal HK-2 cells and in TGF-β induced EMT cells. Real-time PCR using human CTGF TaqMan® Gene Expression Assay and Collagen 1α1 TaqMan® Gene Expression Assay normalized to human GAPDH endogenous control; reference is TGF-β-treated cells 24 h (RQ=1). Compound I is added at 0.5 mM.
Further analysis was undertaken to determine the effect of Compoounds on EMT. The effect of Compound XVII on TGF-β induced EMT was analyzed on human epithelial […] cells (HK-2). To assess the progression of EMT, the pro-epithelial marker E-cadherin and the mesenchymal/pro-fibrotic markers CTGF and collagen 1 were assayed by quantitative real-time PCR. To determine the efficacy of Compound XVII in inhibiting TGF-β-induced EMT, verification of the ability of TGF-β to induce EMT in HK-2 cells.

P815 mastocytoma = assay: Primary P815 mastocytoma tumor growth in mice; type: in vivo
Description: The syngeneic tumor P815 is a DBA/2 (H-2^d)-derived mastocytoma obtained from ATCC (TIB64). […] Mice were sacrificed around day 23 (depending on the experiment). […] Tumors were palpable, in general, 3-5 days post-inoculation.

P815 liver metastasis = P815 liver metastasis in mice; type: in vivo
Protocol: The syngeneic tumor P815 is a DBA/2 (H-2^d)-derived mastocytoma obtained from ATCC (TIB64). P815 cells were grown in DMEM containing 10% fetal bovine serum. At day 0, 50 μL of 5×10^5 viable P815 cells were subcutaneously injected to produce localized tumors in 6- to 8-week old DBA/2 mice. The animals were then serially monitored by manual palpation for evidence of tumor. […] Mice were sacrificed around day 23 (depending on the experiment). Serial tumor volume was obtained by bi-dimensional diameter measurements with calipers, using the formula 0.4 (a×b^2) where “a” was the major tumor diameter and “b” the minor perpendicular diameter. Tumors were palpable, in general, 3-5 days post-inoculation.
It is known that P815 cells have the capacity to metastasize to the liver.

[1] = TGF-β-stimulated cells, 24 h, normalized to GAPDH, sodium decanoate and Compound I at 0.5 mM
[2] = compound alone, no TGF-β, sodium decanoate and Compound I at 0.5 mM

In the case of `O=c1[nH]cc(F)c(=O)[nH]1` [5-fluorouracil, reference compound], the “efficacy on primary tumor CT-26 (single agent)” value (CT-26WT colon tumor) was “weak efficacy”.
In the case of `CCCCCCCC(=O)c1cccc(C(=O)[O-])c1.[Na+]` [Compound XVIII, Sodium 3-octanoylbenzoate], the inhibition at 200 µM (CTGF production) was 49% and the “IL-12” value (IL-12 production) was 1099 pg/mL.
For `CCCCCCCCC(Oc1ccc(C(=O)CCCCC)cc1)C(=O)[O-].[Na+]` (racemic) [Compound XXVI, Sodium (RS)-2-[4-Hexanoylphenoxy]decanoate], the melting point was 275 to 280 °C and the “IL-12 (pg/mL)” value (IL-12 production; compound 0.02 mM) was 54 (at 0.02 mM) pg/mL.
With `CCCCCCCCC(Oc1ccc(C(=O)CCC)cc1)C(=O)[O-].[Na+]` (racemic) [Compound XXV, Sodium (RS)-2-[4-Butyrylphenoxy]decanoate] the melting point was 262 to 278 °C and the “IL-12 (pg/mL)” value (IL-12 production; compound 0.04 mM) was 73 (at 0.04 mM) pg/mL.
For `CCCCCCCC(=O)c1ccc2c(c1)CC(C(=O)[O-])C2.[Na+]` (racemic) [Compound XIX, Sodium (RS)-5-octanoylindane-2-carboxylate], the inhibition at 63 µM (CTGF production; 63 μM) was 45% and the “IL-12 (pg/mL)” value (IL-12 production; compound 0.05 mM) was 53 (at 0.05 mM) pg/mL.
With `CCCCCCc1cccc(C(=O)[O-])c1.[Na+]` [Compound XIII, Sodium salt of 3-hexylbenzoate] the inhibition at 125 µM (CTGF production; 125 μM) was 29% and the “IL-12 (pg/mL)” value (IL-12 production; compound 0.125 mM) was 18 (at 0.125 mM) pg/mL.
For `CCCCCc1cc(CC(=O)[O-])ccc1O.[Na+]` [Compound IX, Sodium 2-[4-Hydroxy-3-pentylphenyl]acetate], the melting point was 193 to 197 °C and the “IL-12” value (IL-12 production) was 20 pg/mL.
With `CCC/C=C/c1cccc(CC(=O)[O-])c1.[Na+]` [Compound IV, Sodium salt of E-(3-pent-1-enyl-phenyl)acetic acid] the inhibition at 500 µM (CTGF production) was 34% and the “IL-12” value (IL-12 production) was 19 pg/mL.
In the case of `COc1cccc2c1C(=O)c1c(O)c3c(c(O)c1C2=O)C[C@@](O)(C(=O)CO)C[C@@H]3O[C@H]1C[C@H](N)[C@H](O)[C@H](C)O1` [doxorubicin, reference compound], the “reduction of primary tumor volume compared to the control” value (B16F10 melanoma cells) was “around 25%”.
With `CCCCCCCCC(Oc1ccc(C(=O)CCCCCCC)cc1)C(=O)[O-].[Na+]` (racemic) [Compound XVII, Sodium (RS)-2-[4-octanoylphenoxy]decanoate] the “TGF-β induced EMT” value (HK-2 cells; HK-2 cells, sodium decanoate and Compound I at 0.5 mM) was “significantly inhibited”, the E-cadherin transcript expression (HK-2 cells; TGF-β induced EMT cells, 24 h, normalized to GAPDH, FIG. 20) was “upregulation” and the CTGF transcript expression (HK-2 cells; [1]) was “downregulation”. The “collagen 1 transcript expression” value (HK-2 cells; [1]) was “downregulation”, the “basal expression of CTGF” value (HK-2 cells; [2]) was “downregulate” and the “basal expression of collagen 1” value (HK-2 cells; [2]) was “downregulate”. For the same compound, the P815 tumor growth (P815 mastocytoma; FIG. 17) was “significant reduction (p<0.05)”, the “efficacy compared with soluble acetylsalicylic acid” value (P815 mastocytoma; FIG. 17) was “better efficacy to the gold standard compound” and the inhibition at 7.5 µM (CTGF production; 7.5 μM) was 40%. For the same compound, the “reduction of the number of mice with liver metastasis” value (P815 liver metastasis; 50 mg/kg, FIG. 18) was “approximately 20%” and the “IL-12 (pg/mL)” value (IL-12 production; compound 0.05 mM) was 209 (at 0.05 mM) pg/mL.
With `CCCCc1cccc(CCC(=O)[O-])c1.[Na+]` [Compound III] the inhibition at 500 µM (CTGF production) was 46% and the “IL-12” value (IL-12 production) was 62 pg/mL.
In the case of sodium decanoate and 5-fluorouracil, the “tumor growth T/C” value (CT-26WT colon tumor; combination, from day 16 to day 26) was “approximately 40%”.
With `O=C([O-])CCc1ccc(NCc2cccc(Oc3ccccc3)c2)cc1.[Na+]` [Compound XV, 3-(4-(3-phenoxy-benzylamino)phenyl) propionic acid] the “efficacy on primary tumor CT-26 (single agent)” value (CT-26WT colon tumor) was “weak efficacy”, the P815 tumor growth (P815 mastocytoma; oral 200 mg/kg, FIG. 7 and 8) was “significant reduction (p<0.05)” and the inhibition at 20 µM (CTGF production; 20 μM) was 22%. The “reduction of mice with liver metastasis” value (P815 liver metastasis; oral 200 mg/kg, p<0.05, FIG. 9 and 10) was 50% and the “IL-12” value (IL-12 production) was 37 pg/mL.
With `CCCCCCCC(=O)c1ccc(OC(CCCCCC)C(=O)[O-])cc1.[Na+]` (racemic) [Compound XXIV, Sodium (RS)-2-[4-Octanoylphenoxy]octanoate] the melting point was 165 to 170 °C and the “IL-12 (pg/mL)” value (IL-12 production; compound 0.02 mM) was 12 (at 0.02 mM) pg/mL.
For `CCCCCCCC(=O)c1cccc2c1CC(C(=O)[O-])C2.[Na+]` (racemic) [Compound XLI, Sodium (RS)-4-Octanoylindane-2-Carboxylate], the “IL-12 (pg/mL)” value (IL-12 production; compound 0.1 mM) was 25 (at 0.1 mM) pg/mL.
For `CCCC/C=C/c1cccc(CC(=O)[O-])c1.[Na+]` [Compound VI], the “IL-12” value (IL-12 production) was 53 pg/mL.
In the case of `CCCCCc1ccc(C(=O)[O-])cc1.[Na+]` [Compound XI, Sodium salt of 4-pentylbenzoic acid], the inhibition at 500 µM (CTGF production) was 28% and the “IL-12” value (IL-12 production) was 78 pg/mL.
With `CCCCCc1cc(O)cc(CC(=O)[O-])c1.[Na+]` [Compound VIII, Sodium salt of [3-Hydroxy-5-pentylphenyl]acetic acid] the inhibition at 200 µM (CTGF production) was 47% and the “IL-12” value (IL-12 production) was 17 pg/mL.
Compound `CCCCOc1ccc(C(CC(=O)[O-])c2cccc(F)c2)cc1.[Na+]` (centres unmarked) has a melting point of 135 °C.
In the case of `CCCCCc1cccc(CCC(=O)[O-])c1.[Na+]` [Compound II, Sodium salt of 3-(3-pentylphenyl)propionic acid], the P815 tumor growth (P815 mastocytoma; oral 200 mg/kg, FIG. 7 and 8) was “significant reduction (p<0.05)”, the inhibition at 100 µM (CTGF production; 100 μM) was 38% and the “IL-12” value (IL-12 production) was 351 pg/mL.

— patent US9439882B2, “Compounds and compositions for the treatment of cancer” (PROMETIC BIOSCIENCES, INC., priority 2010, dated 2016)
